The record followed here is patent US10646488B2 (Araxes Pharma LLC, priority 2016, dated 2020).

In this assay the target is T1, KRAS G12C 1-169, his-tagged protein, GDP-loaded (Homo sapiens, UniProt P01116, G12C).
T1 construct: KRAS G12C 1-169, his-tagged protein, GDP-loaded
In words: Covalent binding (% modification) to KRAS G12C by mass spectrometry. On the procedure: Test compounds were prepared as 10 mM stock solutions in DMSO (Fisher cat # BP-231-100). KRAS G12C 1-169, his-tagged protein, GDP-loaded was diluted to 2 μm in buffer (20 mM Hepes, 150 mM NaCl, 1 mM MgCl2). Compounds were tested for activity as follows:
Compounds were diluted to 50× final test concentration in DMSO in 96-well storage plates. Compound stock solutions were vortexed before use and observed carefully for any sign of precipitation. Dilutions were as follow: • For 100 μM final compound concentration, compounds were diluted to 5000 μM (5 μl 10 mM compound stock+5 μl DMSO and mixed well by pipetting. • For 30 μM final compound concentration, compounds were diluted to 1500 μM (3 μl 10 mM compound stock+17 μl DMSO) and mixed well by pipetting. • For 10 μM final compound concentration, compounds were diluted to 500 μM (2 μl 10 mM compound stock+38 μl DMSO) and mixed well by pipetting. 49 μl of the stock protein solution was added to each well of a 96-well PCR plate (Fisher cat #1423027). 1 μl of the diluted 50× compounds were added to appropriate wells in the PCR plate using 12-channel pipettor. Reactions were mixed carefully and thoroughly by pipetting up/down with a 200·1 multi-channel pipettor. […] 5 μl of 2% formic acid (Fisher cat # A117) in DI H2O was then added to each well followed by mixing with a pipette. The plate was then resealed with aluminum seal and stored on dry ice until analyzed as described below.
The above described assays were analyzed by mass spectrometry according to one of the following two procedures:
The MS instrument is set to positive polarity, 2 GHz resolution, and low mass (1700) mode and allowed to equilibrate for 30 minutes. The instrument is then calibrated, switched to acquisition mode and the appropriate method loaded.
After another 30 minute equilibration time, a blank batch (i.e., buffer) is run to ensure equipment is operating properly. The samples are thawed at 37° C. for 10 minutes, briefly centrifuged, and transfer to the bench top. Wells A1 and H12 are spiked with 1 uL 500 uM internal standard peptide, and the plates centrifuged at 2000×g for 5 minutes. The method is then run and masses of each individual well recorded.
The masses (for which integration data is desired) for each well are pasted into the platemap and exported from the analysis. Masses for the internal standards are exported as well. The data at 50 ppm is extracted for the +19 charge state, and identity of well A1 is assigned using the internal standard spike and integrated. Peak data is exported as a TOF list and the above steps are repeated individually, for the +20, 21, 22, 23, 24, and 25 charge states.
The masses and peak intensities of KRAS G12C protein species were measured using a Dionex RSLCnano system (Thermo Scientific) connected to a Q Exactive Plus mass spectrometer (Thermo Scientific).
[…] of sample was each loaded onto a Aeris™ 3.6 μm WIDEPORE C4 200 Å, LC Column 50×2.1 mm column maintained at 40° C. at a flow rate of 600 μl min^−1 with […] (0.1% formic acid in acetonitrile). The liquid chromatography conditions were 20% solvent B for 1 min, 20% to 60% solvent B for 1.5 min, 60% to 90% solvent for 0.5 min, 90% solvent B for 0.2 min, 90% to 20% solvent B for 0.2 min, and then equilibrated for 1.6 min before the following sample injection. The flow rate was maintained at 600 μl min^−1 throughout the sample analysis.
The mass spectrometer was operated in profile mode at a resolution of 17500, 5 microscans, using 50 msec max injection time and an AGC target of 1e6, and a full mass range from 800-1850 m/z was recorded. The HCD trapping gas was optimized for maximum sensitivity for intact proteins. The ionization method was electrospray ionization, which used a spray voltage of 4 kV, sheath gas flow set to 50 au, auxiliary gas flow set to 10 au and sweep gas flow set to 1 au. […]

[1] abbreviates: covalent binding to KRAS G12C after a ten minute incubation period.
[2] abbreviates: covalent binding to KRAS G12C after a three minute incubation period.

In the case of `C=CC(=O)N1C[C@H](C)N(c2nc(OCCN(CC)CC)nc3c(F)c(-c4c(O)cccc4F)c(Cl)cc23)C[C@H]1C` (atropisomer, axis not shown) [Compound 74, 1-((2R,5S)-4-((R)-6-chloro-2-(2-(diethylamino)ethoxy)-8-fluoro-7-(2-fluoro-6-hydroxyphenyl)quinazolin-4-yl)-2,5-dimethyl-piperazin-1-yl) prop-2-en-1-one], the Binding % entry under setting [1] is on record as “+ (+ indicates binding activity up to 50%)”.

Take `C=CC(=O)N1C[C@H](C)N(c2nc(OCCN(CC)CC)nc3c(F)c(-c4c(O)cccc4F)c(Cl)cc23)C[C@H]1C` (atropisomer, axis not shown) [Compound 75, 1-((2R,5S)-4-((S)-6-chloro-2-(2-(diethylamino)ethoxy)-8-fluoro-7-(2-fluoro-6-hydroxyphenyl)quinazolin-4-yl)-2,5-dimethyl-piperazin-1-yl) prop-2-en-1-one]: the Binding % result under setting [1] is listed as “+++ (+++ indicates binding activity greater than 90%)”.

As for `C=CC(=O)N1C[C@H](C)N(c2nc(OCCN3CC(F)(F)C3)nc3c(F)c(-c4c(O)cccc4F)c(Cl)cc23)C[C@H]1C` (atropisomer, axis not shown) [Compound 83, 1-((2R,5S)-4-((R)-6-chloro-2-(2-(3,3-difluoroazetidin-1-yl)ethoxy)-8-fluoro-7-(2-fluoro-6-hydroxyphenyl)quinazolin-4-yl)-2,5-dimethyl-piperazin-1-yl) prop-2-en-1-one], under setting [1], the Binding % entry is recorded as “+ (+ indicates binding activity up to 50%)”.

As to `C=CC(=O)N1C[C@H](C)N(c2nc(OCCN3CC(F)(F)C3)nc3c(F)c(-c4c(O)cccc4F)c(Cl)cc23)C[C@H]1C` (atropisomer, axis not shown) [Compound 84, 1-((2R,5S)-4-((S)-6-chloro-2-(2-(3,3-difluoroazetidin-1-yl)ethoxy)-8-fluoro-7-(2-fluoro-6-hydroxyphenyl)quinazolin-4-yl)-2,5-dimethyl-piperazin-1-yl) prop-2-en-1-one], the Binding % result under setting [1] is recorded as “+++ (+++ indicates binding activity greater than 90%)”.

Regarding `C=CC(=O)N1C[C@H](C)N(c2nc(OCCN3CC(F)(F)C3)nc3c(F)c(-c4c(O)cccc4F)c(Cl)cc23)C[C@H]1C` (atropisomer, axis not shown) [Compound 89, 1-((2R,5S)-4-(6-chloro-2-(2-(3,3-difluoroazetidin-1-yl)ethoxy)-8-fluoro-7-((R)-2-fluoro-6-hydroxyphenyl)quinazolin-4-yl)-2,5-dimethyl-piperazin-1-yl) prop-2-en-1-one], under setting [2], the Binding % result is “+ (+ indicates binding activity greater than 0% and up to 50%)”.

Turning to `C=CC(=O)N1C[C@H](C)N(c2nc(OCCN3CC(F)(F)C3)nc3c(F)c(-c4c(O)cccc4F)c(Cl)cc23)C[C@H]1C` (atropisomer, axis not shown) [Compound 90, 1-((2R,5S)-4-(6-chloro-2-(2-(3,3-difluoroazetidin-1-yl)ethoxy)-8-fluoro-7-((S)-2-fluoro-6-hydroxyphenyl)quinazolin-4-yl)-2,5-dimethyl-piperazin-1-yl) prop-2-en-1-one], under setting [2], the Binding % entry is on record as “+++ (+++ indicates binding activity greater than 90%)”.

Regarding `C=CC(=O)N1C[C@H](C)N(c2nc(N3CC(NC)C3)nc3c(F)c(-c4c(C)ccc5cn[nH]c45)c(Cl)cc23)C[C@H]1C` (atropisomer, axis not shown) [Compound 108, 1-((2R,5S)-4-(6-chloro-8-fluoro-7-((R)-6-methyl-1H-indazol-7-yl)-2-(3-(methylamino)azetidin-1-yl)quinazolin-4-yl)-2,5-dimethyl-piperazin-1-yl) prop-2-en-1-one], the Binding % entry under setting [2] was “+++ (+++ indicates binding activity greater than 90%)”.

Turning to `C=CC(=O)N1C[C@H](C)N(c2nc(N3CC(NC)C3)nc3c(F)c(-c4c(C)ccc5cn[nH]c45)c(Cl)cc23)C[C@H]1C` (atropisomer, axis not shown) [Compound 109, 1-((2R,5S)-4-(6-chloro-8-fluoro-7-((S)-6-methyl-1H-indazol-7-yl)-2-(3-(methylamino)azetidin-1-yl)quinazolin-4-yl)-2,5-dimethyl-piperazin-1-yl) prop-2-en-1-one], the Binding % result under setting [2] was “+ (+ indicates binding activity greater than 0% and up to 50%)”.

Consider `C=CC(=O)N1C[C@H](C)N(c2nc(OCCN3CC(F)(F)C3)nc3c(F)c(-c4c(C)ccc5cn[nH]c45)c(Cl)cc23)C[C@H]1C` (atropisomer, axis not shown) [Compound 127, 1-((2R,5S)-4-(6-chloro-2-(2-(3,3-difluoroazetidin-1-yl)ethoxy)-8-fluoro-7-((R)-6-methyl-1H-indazol-7-yl)quinazolin-4-yl)-2,5-dimethyl-piperazin-1-yl) prop-2-en-1-one], for which, under setting [2], the Binding % entry is reported as “+++ (+++ indicates binding activity greater than 90%)”.

As for `C=CC(=O)N1C[C@H](C)N(c2nc(OCCN3CC(F)(F)C3)nc3c(F)c(-c4c(C)ccc5cn[nH]c45)c(Cl)cc23)C[C@H]1C` (atropisomer, axis not shown) [Compound 128, 1-((2R,5S)-4-(6-chloro-2-(2-(3,3-difluoroazetidin-1-yl)ethoxy)-8-fluoro-7-((S)-6-methyl-1H-indazol-7-yl)quinazolin-4-yl)-2,5-dimethyl-piperazin-1-yl) prop-2-en-1-one], the Binding % result under setting [2] was “+ (+ indicates binding activity greater than 0% and up to 50%)”.

For `C=CC(=O)N1C[C@H](C)N(c2nc(N3CC(N(C)C)C3)nc3c(F)c(-c4c(C)ccc5[nH]ncc45)c(Cl)cc23)C[C@H]1C` (atropisomer, axis not shown) [Compound 130, 1-((2R,5S)-4-(6-chloro-2-(3-(dimethylamino)azetidin-1-yl)-8-fluoro-7-((R)-5-methyl-1H-indazol-4-yl)quinazolin-4-yl)-2,5-dimethyl-piperazin-1-yl) prop-2-en-1-one], under setting [2], the Binding % entry was “+++ (+++ indicates binding activity greater than 90%)”.

Turning to `C=CC(=O)N1C[C@H](C)N(c2nc(N3CC(N(C)C)C3)nc3c(F)c(-c4c(C)ccc5[nH]ncc45)c(Cl)cc23)C[C@H]1C` (atropisomer, axis not shown) [Compound 131, 1-((2R,5S)-4-(6-chloro-2-(3-(dimethylamino)azetidin-1-yl)-8-fluoro-7-((S)-5-methyl-1H-indazol-4-yl)quinazolin-4-yl)-2,5-dimethyl-piperazin-1-yl) prop-2-en-1-one], under setting [2], the Binding % result is “+ (+ indicates binding activity greater than 0% and up to 50%)”.

Take `C=CC(=O)N1C[C@H](C)N(c2nc(N3CC(N(C)C4CCC4)C3)nc3c(F)c(-c4c(O)cccc4F)c(Cl)cc23)C[C@H]1C` (atropisomer, axis not shown) [Compound 138, 1-((2R,5S)-4-(6-chloro-2-(3-(cyclobutyl (methyl)amino)azetidin-1-yl)-8-fluoro-7-((S)-2-fluoro-6-hydroxyphenyl)quinazolin-4-yl)-2,5-dimethyl-piperazin-1-yl) prop-2-en-1-one]: the Binding % result under setting [2] is on record as “+++ (+++ indicates binding activity greater than 90%)”.

For `C=CC(=O)N1C[C@H](C)N(c2nc(N3CC(N(C)C4CCC4)C3)nc3c(F)c(-c4c(O)cccc4F)c(Cl)cc23)C[C@H]1C` (atropisomer, axis not shown) [Compound 139, 1-((2R,5S)-4-(6-chloro-2-(3-(cyclobutyl (methyl)amino)azetidin-1-yl)-8-fluoro-7-((R)-2-fluoro-6-hydroxyphenyl)quinazolin-4-yl)-2,5-dimethyl-piperazin-1-yl) prop-2-en-1-one], the Binding % result under setting [2] was “+ (+ indicates binding activity greater than 0% and up to 50%)”.
